# Test results: patent US7250441B2, “Carbazole and cyclopentaindole derivatives to treat infection with Hepatitis C virus” (priority 2004, dated 2007)
# Biological target: T1, HCV RdRp NS5B d21BK (NS5B from the BK strain, genotype 1b) (Hepatitis C virus genotype 1b, UniProt P26663)
# T1 construct: NS5B from the BK strain (genotype 1b) is expressed in E coli as a protein in which the 21 C-terminal amino acids are replaced; made in house; host or cells: E. coli
# Assay: Hepatitis C polymerase inhibition assay, radioactive nucleotide incorporation with filter capture
# Type: biochemical
# Description: The ability of the compounds of formula (I) to inhibit Hepatitis C Polymerase was established by the following experimental procedure.
# NS5B from the BK strain (genotype 1b) is expressed in E coli as a protein in which the 21 C-terminal amino acids are replaced with a short linker and a hexahistidine tag ([…]). The purified protein is mixed with radioactive nucleotides and allowed to replicate a heteropolymeric RNA substrate, primed by an endogenous short hairpin, resulting in an approximately 760 nt product. The radioactive product is captured on a filter and quantitated after removal of the unincorporated nucleotides.
# (1) Compounds 10 μl at 10 μg/ml in 15% dimethylsulfoxide (DMSO)
# When starting from 100 μg/ml compound stock in 1% DMSO, 5 μl 30% DMSO is dispensed per well. Next, 5 μl compound (100 μg/ml) is dispensed per well.
# When starting from 50 μg/ml compound stock in 15% DMSO, 10 μl compound is added per well.
# 20 μl enzyme mix is added into each well of the assay plate. The compound and enzyme are incubated at room temperature for 15 minutes.
# (3) Template mix (prepared in advance)
# A tube of RNA (5 μg/tube stored in 75% ethanol and 0.3 M sodium acetate) is microcentrifuged for 20 minutes at 4° C. (one tube supplies 1-1.5 plates). Ethanol is removed from the tube by gently inverting the tube. The RNA is vacuum dried and re-suspended in 1 ml of DEPC water in a tightly capped tube. To dissolve RNA, the RNA solution is incubated on ice for ˜60 minutes and gently vortexed. It is spun briefly to ensure all RNA solution at the bottom of the tube before opening cap. The RNA solution is then gently transferred into a 5 ml or larger tube. Another 3 ml of DEPC water is added to obtain a total of 4 ml of volume.
# The following volumes of reagents are added:
# 20 μl template mix per reaction is added (i.e. 20 ng of pOF per reaction or ˜3 nM)
# (4) The reaction is incubated at room temperature (22-25° C.) for 2 hours.
# (5) The reaction is quenched by adding 50 μl of 170 mM EDTA.
# Final concentration of EDTA is 85 mM.
# (6) The filters of Millipore multiscreen assay plate is pre-wet by adding 200 μl of 0.5 M sodium phosphate buffer, pH 7.0 into each well. This stands at room temperature for 2-3 minutes.
# (7) The multiscreen filter plate is placed onto a Millipore Manifold under vacuum to allow buffer to flow through. After the vacuum is turned off, 80 μl of the reaction product is transferred into each well of the filter plate. This stands for 2-3 minutes prior to turning on the vacuum again to filter the reaction product.
# (8) The vacuum is then removed. 200 μl of 0.5 M sodium phosphate buffer is added, pH 7.0, into each well. The vacuum is then turned on.
# Step (8) is repeated three more times.
# (9) Next the polypropylene bottom is removed, and the filter is spot dried with a paper towel. The filter plate is air-dried on a bench for 1 hour before adding 40 μl Super Mix scintillant. The top of the plate is sealed with a tape and the plate is placed into a Packard carrier or micro-beta carrier.
# (10) The plate is counted using a Packard Topcount or micro-beta counter. Count (for example using Program 10) for ^33P in Top count or ^33P program in micro-beta.
# The percent inhibition is calculated after background subtraction as a percent reduction of activity relative to the positive control (average value of the plate excluding the negative controls). For the primary screen hits were chosen as showing >75% inhibition.
# See, Ferrari et al. 1999. J. Virology 73:1649-1654: “Characterization of soluble Hepatitis C virus RNA-dependent RNA polymerase expressed in E. coli and Takamizawa et al 1991” and J. Virology 65:1105-1113: “Structure and characterization of Hepatitis C virus genome isolated from human carriers,” both reference are hereby incorporated by reference.
# T1 sequence (P26663 2420-2989): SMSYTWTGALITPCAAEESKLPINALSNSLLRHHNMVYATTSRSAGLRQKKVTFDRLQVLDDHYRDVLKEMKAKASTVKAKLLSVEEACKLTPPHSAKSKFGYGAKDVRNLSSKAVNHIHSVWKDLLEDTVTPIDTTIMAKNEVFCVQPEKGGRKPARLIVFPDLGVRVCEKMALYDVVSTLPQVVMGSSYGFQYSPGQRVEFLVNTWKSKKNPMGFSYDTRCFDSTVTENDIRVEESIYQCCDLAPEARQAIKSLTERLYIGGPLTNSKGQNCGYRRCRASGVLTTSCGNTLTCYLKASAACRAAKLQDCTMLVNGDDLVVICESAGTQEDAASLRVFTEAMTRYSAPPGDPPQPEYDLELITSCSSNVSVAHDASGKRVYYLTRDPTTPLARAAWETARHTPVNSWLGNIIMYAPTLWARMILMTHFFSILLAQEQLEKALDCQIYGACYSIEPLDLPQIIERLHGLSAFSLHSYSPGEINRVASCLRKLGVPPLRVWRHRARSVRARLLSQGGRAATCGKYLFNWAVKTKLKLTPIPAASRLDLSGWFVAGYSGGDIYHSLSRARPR
row,Compound,IC50
1,"C=CCC1(C(=O)O)CCc2c1[nH]c1c(Cl)ccc(Cl)c21 (centres unmarked) [Example 1, 3-Allyl-5,8-dichloro-1,2,3,4-tetrahydro-cyclopenta[b]indole-3-carboxylic acid]",1.2 µM
2,"CCCCC1(C(=O)O)CCc2c1[nH]c1c(Cl)ccc(Cl)c21 (centres unmarked) [Example 2, 3-Butyl-5,8-dichloro-1,2,3,4-tetrahydro-cyclopenta[b]indole-3-carboxylic acid]",1.9 µM
3,"CCCC1(C(=O)O)CCc2c1[nH]c1c(Cl)ccc(Cl)c21 (centres unmarked) [Example 3, 5,8-Dichloro-3-propyl-1,2,3,4-tetrahydro-cyclopenta[b]indole-3-carboxylic acid]",0.55 µM
4,"CCCCC1(C(=O)O)CCc2c1[nH]c1c(C)ccc(Br)c21 (centres unmarked) [Example 4, 8-Bromo-3-butyl-5-methyl-1,2,3,4-tetrahydro-cyclopenta[b]indole-3-carboxylic acid]",6.7 µM
5,"CCCCC1(C(=O)O)CCc2c1[nH]c1c(F)ccc(Br)c21 (centres unmarked) [Example 5, 8-Bromo-3-butyl-5-fluoro-1,2,3,4-tetrahydro-cyclopenta[b]indole-3-carboxylic acid]",5.8 µM
6,"CCCCC1(C(=O)O)CCc2c1[nH]c1c(C)cc(F)c(Br)c21 (centres unmarked) [Example 6, 8-Bromo-3-butyl-7-fluoro-5-methyl-1,2,3,4-tetrahydro-cyclopenta[b]indole-3-carboxylic acid]",2.1 µM
7,"CCCCC1(C(=O)O)CCc2c1[nH]c1c(C)cc(F)cc21 (centres unmarked) [Example 7, 3-Butyl-7-fluoro-5-methyl-1,2,3,4-tetrahydro-cyclopenta[b]indole-3-carboxylic acid]",9.1 µM
8,"C=CCC1(C(=O)O)CCc2c1[nH]c1c(C)ccc(Br)c21 (centres unmarked) [Example 8, 3-Allyl-8-bromo-5-methyl-1,2,3,4-tetrahydro-cyclopenta[b]indole-3-carboxylic acid]",5.7 µM
9,"C=CCC1(C(=O)O)CCc2c1[nH]c1c(F)ccc(Br)c21 (centres unmarked) [Example 9, 3-Allyl-8-bromo-5-fluoro-1,2,3,4-tetrahydro-cyclopenta[b]indole-3-carboxylic acid]",6.4 µM
10,"C=CCC1(C(=O)O)CCc2c1[nH]c1c(C)cc(F)c(Br)c21 (centres unmarked) [Example 10, 3-Allyl-8-bromo-7-fluoro-5-methyl-1,2,3,4-tetrahydro-cyclopenta[b]indole-3-carboxylic acid]",3.2 µM
11,"CCCC1(C(=O)O)CCc2c1[nH]c1c(C)ccc(Br)c21 (centres unmarked) [Example 11, 8-Bromo-5-methyl-3-propyl-1,2,3,4-tetrahydro-cyclopenta[b]indole-3-carboxylic acid]",1.9 µM
12,"CCCC1(C(=O)O)CCc2c1[nH]c1c(F)ccc(Br)c21 (centres unmarked) [Example 12, 8-Bromo-5-fluoro-3-propyl-1,2,3,4-tetrahydro-cyclopenta[b]indole-3-carboxylic acid]",2.9 µM
13,"CCCC1(C(=O)O)CCc2c1[nH]c1c(C)cc(F)c(Br)c21 (centres unmarked) [Example 13, 8-Bromo-7-fluoro-5-methyl-3-propyl-1,2,3,4-tetrahydro-cyclopenta[b]indole-3-carboxylic acid]",2 µM
14,"C=CCC1(C(=O)O)CCc2c1[nH]c1c(F)ccc(C#N)c21 (centres unmarked) [Example 14, 3-Allyl-8-cyano-5-fluoro-1,2,3,4-tetrahydro-cyclopenta[b]indole-3-carboxylic acid]",14.5 µM
15,"CCCCC1(C(=O)O)CCc2c1[nH]c1c(C)ccc(C#N)c21 (centres unmarked) [Example 15, 3-Butyl-8-cyano-5-methyl-1,2,3,4-tetrahydro-cyclopenta[b]indole-3-carboxylic acid]",4.6 µM
16,"CCCCC1(C(=O)O)CCc2c1[nH]c1c(F)ccc(C#N)c21 (centres unmarked) [Example 16, 3-Butyl-8-cyano-5-fluoro-1,2,3,4-tetrahydro-cyclopenta[b]indole-3-carboxylic acid]",5.4 µM

row,Compound,IC50
1,"CCCCC1(C(=O)O)CCc2c1[nH]c1c(C)cc(F)c(C#N)c21 (centres unmarked) [Example 17, 3-Butyl-8-cyano-7-fluoro-5-methyl-1,2,3,4-tetrahydro-cyclopenta[b]indole-3-carboxylic acid]",1.5 µM
2,"C=CCC1(C(=O)O)CCc2c1[nH]c1c(C)ccc(C#N)c21 (centres unmarked) [Example 18, 3-Allyl-8-cyano-5-methyl-1,2,3,4-tetrahydro-cyclopenta[b]indole-3-carboxylic acid]",11 µM
3,"C=CCC1(C(=O)O)CCc2c1[nH]c1c(C)cc(F)c(C#N)c21 (centres unmarked) [Example 19, 3-Allyl-8-cyano-7-fluoro-5-methyl-1,2,3,4-tetrahydro-cyclopenta[b]indole-3-carboxylic acid]",6.3 µM
4,"CCCC1(C(=O)O)CCc2c1[nH]c1c(C)ccc(C#N)c21 (centres unmarked) [Example 20, 8-Cyano-5-methyl-3-propyl-1,2,3,4-tetrahydro-cyclopenta[b]indole-3-carboxylic acid]",4.7 µM
5,"CCCC1(C(=O)O)CCc2c1[nH]c1c(F)ccc(C#N)c21 (centres unmarked) [Example 21, 8-Cyano-5-fluoro-3-propyl-1,2,3,4-tetrahydro-cyclopenta[b]indole-3-carboxylic acid]",8.1 µM
6,"CCCC1(C(=O)O)CCc2c1[nH]c1c(C)cc(F)c(C#N)c21 (centres unmarked) [Example 22, 8-Cyano-7-fluoro-5-methyl-3-propyl-1,2,3,4-tetrahydro-cyclopenta[b]indole-3-carboxylic acid]",1.8 µM
7,"CCC1(C(=O)O)CCCc2c1[nH]c1c(Cl)ccc(Cl)c21 (centres unmarked) [Example 23, 5,8-Dichloro-1-ethyl-2,3,4,9-tetrahydro-1H-carbazole-1-carboxylic acid]",9.7 µM
8,"CCCC1(C(=O)O)CCCc2c1[nH]c1c(Cl)ccc(Cl)c21 (centres unmarked) [Example 24, 5,8-Dichloro-1-propyl-2,3,4,9-tetrahydro-1H-carbazole-1-carboxylic acid]",3.2 µM
9,"CCCC1(C(=O)O)CCCc2c1[nH]c1c(F)ccc(C#N)c21 (centres unmarked) [Example 25, 5-Cyano-8-fluoro-1-propyl-2,3,4,9-tetrahydro-1H-carbazole-1-carboxylic acid]",10 µM
10,"N#Cc1ccc(F)c2[nH]c3c(c12)CCCC3(CC1CCC1)C(=O)O (centres unmarked) [Example 26, 5-Cyano-1-cyclobutylmethyl-8-fluoro-2,3,4,9-tetrahydro-1H-carbazole-1-carboxylic acid]",16 µM
11,"CCCC1(C(=O)O)CCCc2c1[nH]c1c(Cl)ccc(C(F)(F)F)c21 (centres unmarked) [Example 27, 8-Chloro-1-propyl-5-trifluoromethyl-2,3,4,9-tetrahydro-1H-carbazole-1-carboxylic acid]",5.8 µM
12,"CCCC1(C(=O)O)CCCc2c1[nH]c1c(C)ccc(C#N)c21 (centres unmarked) [Example 28, 5-Cyano-8-methyl-1-propyl-2,3,4,9-tetrahydro-1H-carbazole-1-carboxylic acid]",15 µM
13,"C=CCC1(CC(=O)O)CCCc2c1[nH]c1c(F)ccc(F)c21 (centres unmarked) [Example 29, (1-Allyl-5,8-difluoro-2,3,4,9-tetrahydro-1H-carbazol-1-yl)-acetic acid]",32 µM
14,"CCCC1(CC(=O)O)CCCc2c1[nH]c1cc(F)cc(F)c21 (centres unmarked) [Example 30, (5,7-Difluoro-1-propyl-2,3,4,9-tetrahydro-1H-carbazol-1-yl)-acetic acid]",30.7 µM
15,"C=CCC1(CC(=O)O)CCCc2c1[nH]c1c(F)ccc(C#N)c21 (centres unmarked) [Example 31, (1-Allyl-5-cyano-8-fluoro-2,3,4,9-tetrahydro-1H-carbazol-1-yl)-acetic acid]",0.37 µM
16,"CCCC1(CC(=O)O)CCCc2c1[nH]c1c(F)ccc(C#N)c21 (centres unmarked) [Example 32, (5-Cyano-8-fluoro-1-propyl-2,3,4,9-tetrahydro-1H-carbazol-1-yl)-acetic acid]",2 µM
